One series relates to TNF α-induced SIRS. Briefly: TNF α-induced mouse SIRS model. The note with it: 40 mg/kg oral once before TNF α 500 μg/kg i.v. The class given is in vivo. The method, then:
TNF α formulated in sterile normal saline was administered at a dose of 500 μg/kg by tail vein injection for modeling. The body temperature of the mice was measured by an infrared electric thermometer. The orally-administrated vehicle was 25% castor oil in ethanol and 75% normal saline. Compounds 94 and 46 and RIPK1 positive compound GSK2982772 were administered orally before modeling with a dose of 40 mg/kg. Body temperature and the survival of mice were recorded every hour and recorded for 24 h and 48 h after 11 h.
This experiment established a TNF α-induced SIRS mouse model to evaluate the in vivo activity of compounds of the present invention. TNF α formulated in sterile normal saline was administered to mice at a dose of 500 μg/kg by tail vein injection for modeling. Since the measurement of rectal temperature would cause mechanical injury to mice and may interfere with the experimental results, an infrared electric thermometer was used to measure the body temperature of mice and the survival condition was observed. Compounds 94 and 46 were administered at a dose of 40 mg/kg once prior to modeling. The Vehicle group was given the corresponding vehicle control.

A further series addresses RIPK1 (Homo sapiens (Human), UniProt Q13546). Kind of series: In vitro kinase assay (Eurofins Kinase Profiler), IC50. The class given is biochemical. The settings on record: 0.001-10 μM, read-out: RIPK 1 (IC50).
In series [1] the test system is RIPK1 autophosphorylation, phosphorylation of RIPK3 and MLKL. Briefly: Regulation of RIPK1 signaling pathway (Western blot). The settings on record: TNF α/Smac mimetic/Z-VAD-FMK induced, FIG. 4. The class given is cell-based. The source says:
TNF α was purchased from PeproTech Inc., Smac mimetic and Z-VAD-FMK was purchased from Selleck Inc., RIPA lysis buffer was purchased from Beyotime Institute of Biotechnology, cocktail was purchased from MedChemExpress (MCE) Limited, PMSF protease inhibitors, sodium dodecylsulfonate SDS, and glycine were purchased from Sigma Inc., acrylamide, tris(hydroxymethyl)aminomethane Tris, ammonium persulfate APS and N,N,N′,N′-tetramethyl ethylenediamine TEMED were purchased from Wuhan Servicebio Technology Co., Ltd.
Extraction of total cellular protein: after the cells were treated by adding the corresponding concentration of Compounds 94 and 46 or blank vehicle to the cell supernatant and induced with TNF α/Smac mimetic/Z-VAD-FMK combination for a certain period of time, the supernatant was discarded, followed by washing three times with pre-cooled PBS or normal saline, then an appropriate volume of RIPA lysis buffer (containing 1% cocktail and 1% PMSF protease inhibitor) was added, the mixture was immediately placed on ice horizontally for lysis of 15 min, then the cell lysis buffer was scraped with a scraper and transferred to a 1.5 ml EP tube, and the cells were disrupted with a sonicator. The tubes were then centrifuged in a low temperature high speed centrifuge (12000 rpm, 15 min) to remove cell debris. […]
(In general: Immunoblotting shows a protein as a band on a membrane.)

The next series has as its system HT-29 cells. Kind of series: Protection against programmed necrosis of HT-29 cells (TNF α/Smac mimetic/Z-VAD-FMK, CCK8). The format is cell-based. The note with it: Homo sapiens.
Series [2] is described as follows: In vivo pharmacokinetic study in rats. The settings on record: rat, plasma, oral, 10 mg/kg. The method, then: Blood was collected from rats at different times after administration at the following time points: 0.083 h, 0.25 h, 0.5 h, 1 h, 2 h, 4 h, 8 h, and 24 h after intravenous administration; 0.25 h, 0.5 h, 1 h, 2 h, 4 h, 6 h, 8 h, and 24 h after oral administration. About 0.20 mL of blood was collected via jugular vein or other suitable means for each sample at the corresponding time, with heparin sodium for anticoagulation; the blood sample was placed on ice after collection and centrifuged within 1 h to separate the plasma (centrifugation conditions: centrifugal force 6800 g, 6 min, 2-8° C.). The collected plasma samples were stored in a refrigerator at −80° C. before analysis, and the remaining plasma samples continued to be temporarily stored in the refrigerator at −80° C. for one month after analysis.
Pharmacokinetic parameters such as AUC (0-t), T1/2, Cmax, Tmax, and MRT were calculated using WinNonlin based on plasma concentration data at different time points. The plasma drug concentration-time curve was plotted with BLQ recorded as 0. For the calculation of pharmacokinetic parameters, the concentration before administration was calculated as 0; BLQ before Cmax (including “No peak”) was calculated as 0; no BLQ (including “No peak”) appeared after Cmax participated in the calculation. The experiment was completed by Shanghai Medicilon Inc.

For the next series, the system named is DSS-induced colitis. Briefly: DSS-induced mouse IBD model. The note with it: 40 mg/kg oral from day 7 after 2.5% DSS.
Setting [3] is: TNF α/Smac mimetic/Z-VAD-FMK induced 24 h, CCK8, read-out: HT-29 (EC50).

Where two headings read alike, the source gives them in different places.

The results in this text go back to patent US20230365546A1, “5-SUBSTITUTED INDOLE 3-AMIDE DERIVATIVES, PREPARATION METHOD AND USE THEREOF” (ORIGIANT PHARMACEUTICAL CO., LTD, priority 2020, published 2023).

RIPK1, sequence (Q13546 whole entry): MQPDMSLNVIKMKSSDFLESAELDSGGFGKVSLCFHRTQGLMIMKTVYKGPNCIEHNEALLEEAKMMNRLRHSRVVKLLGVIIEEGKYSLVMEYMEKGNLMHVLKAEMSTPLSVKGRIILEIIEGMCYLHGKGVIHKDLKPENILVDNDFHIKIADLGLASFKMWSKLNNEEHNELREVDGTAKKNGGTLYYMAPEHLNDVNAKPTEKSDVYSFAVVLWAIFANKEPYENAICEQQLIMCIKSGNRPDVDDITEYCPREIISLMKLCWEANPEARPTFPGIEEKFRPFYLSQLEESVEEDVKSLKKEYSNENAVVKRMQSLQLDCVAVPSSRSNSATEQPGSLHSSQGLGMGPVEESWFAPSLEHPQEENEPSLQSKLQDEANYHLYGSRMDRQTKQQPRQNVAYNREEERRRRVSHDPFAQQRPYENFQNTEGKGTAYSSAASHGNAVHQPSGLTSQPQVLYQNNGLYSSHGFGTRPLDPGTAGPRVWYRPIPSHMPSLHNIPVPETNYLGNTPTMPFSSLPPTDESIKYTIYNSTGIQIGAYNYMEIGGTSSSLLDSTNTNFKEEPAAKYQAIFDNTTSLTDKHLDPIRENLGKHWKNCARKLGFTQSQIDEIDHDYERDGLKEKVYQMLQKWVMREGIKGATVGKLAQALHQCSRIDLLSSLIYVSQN
Experimental for DSS-induced colitis: Female C57BL/6 mice weighing 17-20 g were used. […] Fresh DSS solution was changed on Days 2, 4, and 6, respectively. […] The Control group was given normal drinking water daily and corresponding vehicles orally starting on day 7. Body weights and survival rates of mice were recorded daily. Survival curves were fitted using Graphpad Prism 5.0 software. Mice (2/group) were sacrificed on day 12 and observed for changes in colon length.

Regarding `C[C@H](NC(=O)c1cn(C)c2ccc(-c3ccc4nc(NC(=O)C5CC5)sc4c3)cc12)c1cccc(F)c1` [Compound 46], the Overall mortality result with TNF α-induced SIRS (compared with Vehicle group) is recorded as “significantly reduced”. Moreover, the “Body temperature of mice” value in the series with TNF α-induced SIRS (within 11 h) is “relatively normal”. The IC50 (as a rule, the point on the concentration scale where inhibition reaches its midpoint) on RIPK1 fell in the range of 10 to 100 nM. The “Effect on necrotic signaling pathway (RIPK1 autophosphorylation, RIPK3 and MLKL phosphorylation)” value in series [1] is “affected the phosphorylation of RIPK3 and MLKL downstream of RIPK1 by inhibiting its autophosphorylation”. The EC50 – broadly, the concentration giving half of the maximal effect – is below 1 nM in the series on HT-29 cells (setting [3]) and 0.07 nM with HT-29 cells (TSZ-induced, FIG. 3, read-out: EC50 value, programmed necrosis model of HT-29).

Turning to `Cn1cc(C(=O)N2CCCC2c2cccc(F)c2)c2cc(-c3ccn4nc(NC(=O)C5CC5)nc4c3)ccc21` (centres unmarked) [Compound 168], in series [2], the AUC(0-t) (as a rule, exposure summed from dosing to a finite time, without extrapolation to infinity) came out at 15300 ng·h/mL; the Cmax (in general, the highest concentration seen after dosing) was found to be 6360 ng/mL; the Tmax – broadly, the time at which the peak concentration occurs – came out at 0.33 h; the bioavailability (commonly the share of a dose that reaches the circulation, judged against a reference dose that is usually intravenous) was determined as 60.9%. In addition, in series [2], the half-life – broadly, how long it takes for the measured level to halve – is 3.1 h. Besides, the IC50 on RIPK1 was 10 to 100 nM. The EC50 in the series on HT-29 cells (setting [3]) is below 1 nM.

With `Cn1cc(C(=O)N2CCC[C@H]2c2ccc(F)cc2)c2cc(-c3ccn4nc(NC(=O)C5CC5)nc4c3)ccc21` [Compound 174], in series [2], the AUC(0-t) is 11500 ng·h/mL, the Cmax was found to be 3840 ng/mL, the Tmax stood at 0.42 h and the bioavailability turned out to be 35%. For the same molecule, the half-life in series [2] was 1.99 h. Further, the IC50 on RIPK1 lay within 1 to 10 nM. Also, the EC50 with HT-29 cells (setting [3]) is below 1 nM.

As to `Cn1cc(C(=O)N2CCC[C@H]2c2ccc(F)c(F)c2)c2cc(-c3ccn4nc(NC(=O)C5CC5)nc4c3)ccc21` [Compound 191], in series [2], the exposure AUC(0-t) stood at 4560 ng·h/mL, the Cmax worked out at 2130 ng/mL, the Tmax was 0.33 h and the bioavailability amounted to 20.4%. The same molecule showed a half-life in series [2] of 4.67 h. In addition, on RIPK1, the IC50 was below 1 nM. In addition, in the series with HT-29 cells (setting [3]), the EC50 was below 1 nM.

Regarding `Cn1cc(C(=O)N2CCC[C@H]2c2cccc(Cl)c2)c2cc(-c3ccn4nc(NC(=O)C5CC5)nc4c3)ccc21` [Compound 193], in series [2], the AUC(0-t) came out at 14800 ng·h/mL, the Cmax is 2880 ng/mL, the Tmax came out at 2.25 h and the bioavailability is 31.7%. In addition, the half-life in series [2] is 2.74 h. In addition, on RIPK1, the half-maximal inhibitory concentration (IC50) is 10 to 100 nM. Besides, the EC50 with HT-29 cells (setting [3]) lay in the range of 10 to 100 nM.

Take `CCn1cc(C(=O)N2CCC[C@H]2c2ccc(F)cc2)c2cc(-c3ccn4nc(NC(=O)[C@H](C)O)nc4c3)ccc21` [Compound 205]: the IC50 at RIPK1 lay within 10 to 100 nM. Also, the EC50 with HT-29 cells (setting [3]) is below 1 nM.

Regarding `[2H]C([2H])([2H])n1cc(C(=O)N[C@H](c2ccc(F)cc2)C2CC2)c2cc(-c3ccn4nc(NC(=O)C5CC5)nc4c3)ccc21` [Compound 206], the IC50 on RIPK1 lay in the range of 1 to 10 nM. Also, the EC50 in the series with HT-29 cells (setting [3]) is below 1 nM.

Consider `[2H]C([2H])([2H])n1cc(C(=O)N[C@H](c2ccc(F)cc2)C2CC2)c2cc(-c3ccn4nc(NC(=O)CN(C)C)nc4c3)ccc21` [Compound 207], for which the IC50 on RIPK1 was 100 to 1000 nM. For the same molecule, the EC50 in the series with HT-29 cells (setting [3]) was in the range of 1 to 10 nM.

Regarding `[2H]C([2H])([2H])n1cc(C(=O)N[C@@H](CC)c2ccc(F)cc2)c2cc(-c3ccn4nc(NC(=O)C5CC5)nc4c3)ccc21` [Compound 208], the IC50 on RIPK1 lay within 10 to 100 nM. In the series on HT-29 cells (setting [3]), the EC50 is below 1 nM.

Consider `CCN(CC)CC(=O)Nc1nc2cc(-c3ccc4c(c3)c(C(=O)N3CCC[C@H]3c3ccc(F)cc3)cn4C)ccn2n1` [Compound 209], for which the IC50 on RIPK1 was in the range of 1 to 10 nM. Also, the EC50 with HT-29 cells (setting [3]) is below 1 nM.

`CCn1cc(C(=O)N[C@H](c2ccc(F)cc2)C2CC2)c2cc(-c3ccn4nc(NC(=O)CN(C)C)nc4c3)ccc21` [Compound 210]: the IC50 at RIPK1 was in the range of 10 to 100 nM. In the series on HT-29 cells (setting [3]), the EC50 was below 1 nM.

Turning to `CC[C@H](NC(=O)c1cn(CC)c2ccc(-c3ccn4nc(NC(=O)CN(C)C)nc4c3)cc12)c1ccc(F)cc1` [Compound 211], on RIPK1, the 50% inhibitory concentration (IC50) is 1 to 10 nM. In addition, in the series with HT-29 cells (setting [3]), the EC50 is below 1 nM.

With `CCn1cc(C(=O)N[C@@H](CF)c2ccc(F)cc2)c2cc(-c3ccn4nc(NC(=O)C5CC5)nc4c3)ccc21` [Compound 212], at RIPK1, the IC50 was in the range of 1 to 10 nM. The EC50 in the series on HT-29 cells (setting [3]) was below 1 nM.

On to `C[C@H]1CC[C@@H](c2ccc(F)cc2)N1C(=O)c1cn(C)c2ccc(-c3ccn4nc(NC(=O)C5CC5)nc4c3)cc12` [Compound 213], for which the IC50 at RIPK1 fell in the range of 1 to 10 nM. Besides, the EC50 with HT-29 cells (setting [3]) is below 1 nM.

Turning to `CCn1cc(C(=O)N[C@H](c2ccc(F)cc2)C2CC2)c2cc(-c3ccn4nc(NC5CC5)nc4c3)ccc21` [Compound 214], on RIPK1, the IC50 was at least 1000 nM. Besides, the EC50 in the series with HT-29 cells (setting [3]) is at least 1000 nM.

Consider GSK3145095 [reference compound], for which the Death of mice entry in the series on DSS-induced colitis is on record as “occurrence of murine death”. In addition, the “Body weight of mice” value in the series on DSS-induced colitis (FIG. 6) is “continuous declination in body weight”.
